Source: patent US20240083857A1, “2-Methyl-Quinazolines” (Bayer Pharma Aktiengesellschaft, priority 2017, published 2024)
Read-outs that look alike come from different tables or passages of the source.

Columns and labels:
[1] = target: human SOS1 (loading of human K-Ras^G12C-GDP with fluorescent GTP-analog) (Homo sapiens, UniProt Q07889); experiment: Biochemical assay 3: K-Ras^G12C activation assay by hSOS1 (HTRF); settings: for inhibition at 20 µM: read-out: Assay 3 (KRAS-Activation by SOS no GTP) activity expressed as % inhibition at 20 μM
[2] = target: Epidermal Growth Factor Receptor (EGFR) (Homo sapiens (Human), UniProt P00533); experiment: EGFR kinase assay (TR-FRET); type: biochemical
Epidermal Growth Factor Receptor (EGFR), sequence (P00533 25-1210): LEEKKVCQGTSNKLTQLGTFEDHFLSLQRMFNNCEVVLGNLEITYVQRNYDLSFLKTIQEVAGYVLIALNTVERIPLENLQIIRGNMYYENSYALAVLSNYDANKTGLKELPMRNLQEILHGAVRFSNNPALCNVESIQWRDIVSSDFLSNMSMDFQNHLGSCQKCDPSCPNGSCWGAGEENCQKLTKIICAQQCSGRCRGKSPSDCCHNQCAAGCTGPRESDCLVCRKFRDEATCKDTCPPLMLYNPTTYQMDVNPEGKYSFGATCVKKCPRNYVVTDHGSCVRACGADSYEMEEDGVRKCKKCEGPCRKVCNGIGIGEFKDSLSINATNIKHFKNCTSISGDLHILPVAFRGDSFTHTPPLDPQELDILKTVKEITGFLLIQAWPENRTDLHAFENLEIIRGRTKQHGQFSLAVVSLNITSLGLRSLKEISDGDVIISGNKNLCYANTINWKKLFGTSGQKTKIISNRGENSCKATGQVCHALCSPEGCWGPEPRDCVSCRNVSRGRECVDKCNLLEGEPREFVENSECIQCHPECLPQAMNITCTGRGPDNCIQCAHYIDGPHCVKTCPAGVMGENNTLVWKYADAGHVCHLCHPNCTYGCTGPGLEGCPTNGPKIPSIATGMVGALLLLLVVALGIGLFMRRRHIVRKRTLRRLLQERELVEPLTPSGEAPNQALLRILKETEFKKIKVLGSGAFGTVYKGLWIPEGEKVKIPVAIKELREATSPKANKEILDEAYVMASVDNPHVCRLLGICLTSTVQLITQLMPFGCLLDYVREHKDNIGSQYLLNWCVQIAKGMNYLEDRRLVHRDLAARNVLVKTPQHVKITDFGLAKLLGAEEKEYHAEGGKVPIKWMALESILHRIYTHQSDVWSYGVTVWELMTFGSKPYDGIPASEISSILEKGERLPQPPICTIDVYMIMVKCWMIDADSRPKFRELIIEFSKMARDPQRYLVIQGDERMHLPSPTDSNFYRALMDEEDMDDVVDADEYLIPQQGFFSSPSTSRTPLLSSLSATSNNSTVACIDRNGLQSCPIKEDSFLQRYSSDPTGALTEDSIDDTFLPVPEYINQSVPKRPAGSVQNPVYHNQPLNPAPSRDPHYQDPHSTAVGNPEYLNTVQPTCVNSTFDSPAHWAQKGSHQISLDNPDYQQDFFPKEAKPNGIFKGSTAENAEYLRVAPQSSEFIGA
From the text: EGFR inhibitory activity of compounds of the present invention was quantified employing the TR-FRET based EGFR assay as described in the following paragraphs.
Epidermal Growth Factor Receptor (EGFR) affinity purified from human carcinoma A431 cells (Sigma-Aldrich, #E3641) was used as kinase. As substrate for the kinase reaction the biotinylated peptide biotin-Ahx-[…] (SEQ ID NO 5) (C-terminus in amid form) was used which can be purchased e.g. form the company Biosyntan GmbH (Berlin-Buch, Germany).
For the assay 50 nL of a 100 fold concentrated solution of the test compound in DMSO was pipetted into a black low volume 384 well microtiter plate (Greiner Bio-One, Frickenhausen, Germany), 2 μL of a solution of EGFR in aqueous assay buffer [50 mM Hepes/HCl pH 7.0, 1 mM MgCl2, 5 mM MnCl2, 0.5 mM activated sodium ortho-vanadate, 0.005% (v/v) Tween-20]were added and the mixture was incubated for 15 min at 22° C. to allow pre-binding of the test compounds to the enzyme before the start of the kinase reaction. […] The concentration of EGFR was adjusted depending of the activity of the enzyme lot and was chosen appropriate to have the assay in the linear range, typical concentration were about 3 U/ml. The reaction was stopped by the addition of 5 μl of a solution of HTRF detection reagents (0.1 μM streptavidine-XL665 [Cis Biointernational] and 1 nM PT66-Tb-Cryptate, an terbium-cryptate labelled anti-phospho-tyrosine antibody from Cis Biointernational [instead of the PT66-Tb-cryptate PT66-Eu-Chelate from Perkin Elmer can also be used]) in an aqueous EDTA-solution (80 mM EDTA, 0.2% (w/v) bovine serum albumin in 50 mM HEPES pH 7.5).
The resulting mixture was incubated 1 h at 22° C. to allow the binding of the biotinylated phosphorylated peptide to the streptavidine-XL665 and the PT66-Eu-Chelate. Subsequently the amount of phosphorylated substrate was evaluated by measurement of the resonance energy transfer from the PT66-Tb-Cryptate to the streptavidine-XL665. Therefore, the fluorescence emissions at 620 nm and 665 nm after excitation at 337 nm were measured in a HTRF reader, e.g. a Pherastar (BMG Labtechnologies, Offenburg, Germany) or a Viewlux (Perkin-Elmer). The ratio of the emissions at 665 nm and at […] was taken as the measure for the amount of phosphorylated substrate.

[3] = E-notation values, unit inferred, read-out: Assay 3 (KRAS-Activation) IC50
[4] = E-notation values, unit inferred, read-out: EGFR-assay IC50
[5] = values given in μM, read-out: EGFR kinase inhibition IC50
[6] = no GTP, read-out: Assay 3 (KRAS-Activation by SOS no GTP) activity expressed as IC50
[7] = in μM, read-out: EGFR-assay IC50

Compound | IC50 [1, 3] [µM] | IC50 [2, 5] [µM] | IC50 [2, 7] [µM] | further results
COc1cc2nc(C)nc(NC(C)c3ccc(-c4ccccc4CN(C)C)s3)c2cc1OC (single isomer, unassigned) [Example 390, N-[1-(5-{2-[(dimethylamino)methyl]phenyl}thiophen-2-yl)ethyl]-6,7-dimethoxy-2-methylquinazolin-4-amine] | 12.9 | – | – | IC50 [2, 4]: > 20 µM
COc1cc2nc(C)nc(NC(C)c3ccc(-c4ccccc4CN(C)C)s3)c2cc1OC (single isomer, unassigned) [Example 391, N-[1-(5-{2-[(dimethylamino)methyl]phenyl}thiophen-2-yl)ethyl]-6,7-dimethoxy-2-methylquinazolin-4-amine] | 0.0379 | – | – | IC50 [2, 4]: > 20 µM
COc1cc2nc(C)nc(NC(C)c3ccc(=O)[nH]c3)c2cc1OC (single isomer, unassigned; enantiomer 1) [Example 227, 5-{1-[(6,7-dimethoxy-2-methylquinazolin-4-yl)amino]ethyl}pyridin-2(1H)-one, Enantiomer 1] | – | > 20 | – | inhibition at 20 µM ([1]; no GTP): 34%
COc1cc2nc(C)nc(NC(C)c3c(C)ccc4[nH]ncc34)c2cc1OC (centres unmarked) [Example 7, 6,7-dimethoxy-2-methyl-N-[1-(5-methyl-1H-indazol-4-yl)ethyl]quinazolin-4-amine] | – | > 20 | – | inhibition at 20 µM ([1]; no GTP): 33%
COc1cc2nc(C)nc(NC(C)c3ccc(-n4ccc(CCO)n4)o3)c2cc1OC (centres unmarked) [Example 226, 2-[1-(5-{1-[(6,7-dimethoxy-2-methylquinazolin-4-yl)amino]ethyl}furan-2-yl)-1H-pyrazol-3-yl]ethanol] | – | > 20 | – | inhibition at 20 µM ([1]; no GTP): 24%
COc1cc2nc(C)nc(NC(C)c3ccc(C4=CCCC4)s3)c2cc1OC (centres unmarked) [Example 231, N-{1-[5-(cyclopent-1-en-1-yl)thiophen-2-yl]ethyl}-6,7-dimethoxy-2-methylquinazolin-4-amine] | – | > 20 | – | inhibition at 20 µM ([1]; no GTP): 24%
COc1cc2nc(C)nc(NC(C)c3ccc(-c4ccc(CNC(=O)OC(C)(C)C)o4)s3)c2cc1OC (centres unmarked) [Example 236, tert-butyl {[5-(5-{1-[(6,7-dimethoxy-2-methylquinazolin-4-yl)amino]ethyl}thiophen-2-yl)furan-2-yl]methyl}carbamate] | – | > 20 | – | inhibition at 20 µM ([1]; no GTP): 17%
COC(=O)c1cc(-c2ccc(C(C)Nc3nc(C)nc4cc(OC)c(OC)cc34)s2)nn1C (centres unmarked) [Example 237, methyl 3-(5-{1-[(6,7-dimethoxy-2-methylquinazolin-4-yl)amino]ethyl}thiophen-2-yl)-1-methyl-1H-pyrazole-5-carboxylate] | – | > 20 | – | inhibition at 20 µM ([1]; no GTP): 10%
COc1cc2nc(C)nc(NC(C)c3ccc(-c4ccc(F)cc4CNC(=O)c4cc5ccccc5[nH]4)s3)c2cc1OC (centres unmarked) [Example 296, N-[2-(5-{1-[(6,7-dimethoxy-2-methylquinazolin-4-yl)amino]ethyl}thiophen-2-yl)-5-fluorobenzyl]-1H-indole-2-carboxamide] | – | > 20 | – | IC50 [1, 6]: 11.8 µM
COc1cc2nc(C)nc(NC(C)c3ccc(-c4ccccc4CN4CCN(C(=O)OC(C)(C)C)CC4)s3)c2cc1OC (centres unmarked) [Example 306, tert-butyl 4-[2-(5-{1-[(6,7-dimethoxy-2-methylquinazolin-4-yl)amino]ethyl}thiophen-2-yl)benzyl]piperazine-1-carboxylate] | – | > 20 | – | IC50 [1, 6]: 7.94 µM
COc1cc2nc(C)nc(NC(C)c3ccc(-c4ccccc4CNc4ccccc4)s3)c2cc1OC (centres unmarked) [Example 362, 6,7-dimethoxy-2-methyl-N-[1-(5-{2-[(phenylamino)methyl]phenyl}thiophen-2-yl)ethyl]quinazolin-4-amine] | – | > 20 | – | inhibition at 20 µM ([1]; no GTP): 30%
COCCNCc1ccccc1-c1ccc(C(C)Nc2nc(C)nc3cc(OC)c(OC)cc23)s1 (centres unmarked) [Example 369, 6,7-dimethoxy-N-{1-[5-(2-{[(2-methoxyethyl)amino]methyl}phenyl)thiophen-2-yl]ethyl}-2-methylquinazolin-4-amine] | 0.169 | – | > 20 | –
COc1cc2nc(C)nc(NC(C)c3ccc(-c4ccccc4CNC4CC4)s3)c2cc1OC (centres unmarked) [Example 370, N-[1-(5-{2-[(cyclopropylamino)methyl]phenyl}thiophen-2-yl)ethyl]-6,7-dimethoxy-2-methylquinazolin-4-amine] | 0.363 | – | > 20 | –
COC(=O)c1ccc2nc(C)nc(N[C@H](C)c3cccc(Cl)c3)c2c1 [Example 371, methyl 4-{[(1R)-1-(3-chlorophenyl)ethyl]amino}-2-methylquinazoline-6-carboxylate] | 3.35 | – | > 20 | –
Cc1nc(N[C@H](C)c2cccc(Cl)c2)c2cc(CO)ccc2n1 [Example 373, (4-{[(1R)-1-(3-chlorophenyl)ethyl]amino}-2-methylquinazolin-6-yl)methanol] | 9.21 | – | > 20 | –
COc1cc2nc(C)nc(NC(C)c3ccc(-c4ccccc4C(O)c4ccccc4)s3)c2cc1OC (centres unmarked) [Example 374, [2-(5-{1-[(6,7-dimethoxy-2-methylquinazolin-4-yl)amino]ethyl}thiophen-2-yl)-phenyl](phenyl)methanol] | 6.5 | – | > 20 | –
COc1cc2nc(C)nc(NC(C)c3ccc(-c4ccccc4C(O)Cc4ccccc4)s3)c2cc1OC (centres unmarked) [Example 376, 1-[2-(5-{1-[(6,7-dimethoxy-2-methylquinazolin-4-yl)amino]ethyl}thiophen-2-yl)phenyl]-2-phenylethanol] | 17.9 | – | > 20 | –
CCCCC(O)c1ccccc1-c1ccc(C(C)Nc2nc(C)nc3cc(OC)c(OC)cc23)s1 (centres unmarked) [Example 377, 1-[2-(5-{1-[(6,7-dimethoxy-2-methylquinazolin-4-yl)amino]ethyl}thiophen-2-yl)phenyl]pentan-1-ol] | 15.1 | – | > 20 | –
C#CC(O)c1ccccc1-c1ccc(C(C)Nc2nc(C)nc3cc(OC)c(OC)cc23)s1 (centres unmarked) [Example 378, 1-[2-(5-{1-[(6,7-dimethoxy-2-methylquinazolin-4-yl)amino]ethyl}thiophen-2-yl)phenyl]prop-2-yn-1-ol] | 1.45 | – | > 20 | –
COc1cc2nc(C)nc(NC(C)c3ccc(-c4ccccc4C(O)C(C)C)s3)c2cc1OC (centres unmarked) [Example 379, 1-[2-(5-{1-[(6,7-dimethoxy-2-methylquinazolin-4-yl)amino]ethyl}thiophen-2-yl)phenyl]-2-methylpropan-1-ol] | 1.63 | – | > 20 | –
COc1cc2nc(C)nc(NC(C)c3ccc(-c4ccccc4C(O)C(F)(F)F)s3)c2cc1OC (centres unmarked) [Example 380, 1-[2-(5-{1-[(6,7-dimethoxy-2-methylquinazolin-4-yl)amino]ethyl}thiophen-2-yl)phenyl]-2,2,2-trifluoroethanol] | 2.74 | – | > 20 | –
COc1cc2nc(C)nc(NC(C)c3cc(C)c(-c4cnc5n4CCC5)s3)c2cc1OC (centres unmarked) [Example 381, N-{1-[5-(6,7-dihydro-5H-pyrrolo[1,2-a]imidazol-3-yl)-4-methylthiophen-2-yl]ethyl}-6,7-dimethoxy-2-methylquinazolin-4-amine] | 2.33 | – | > 20 | –
COc1cc2nc(C)nc(NC(C)c3ccc(-c4ccc(F)cc4CNC(=O)CO)s3)c2cc1OC (centres unmarked) [Example 382, N-[2-(5-{1-[(6,7-dimethoxy-2-methylquinazolin-4-yl)amino]ethyl}thiophen-2-yl)-5-fluorobenzyl]-2-hydroxyacetamide] | 0.748 | – | > 20 | –
COCC(=O)NCc1cc(F)ccc1-c1ccc(C(C)Nc2nc(C)nc3cc(OC)c(OC)cc23)s1 (centres unmarked) [Example 383, N-[2-(5-{1-[(6,7-dimethoxy-2-methylquinazolin-4-yl)amino]ethyl}thiophen-2-yl)-5-fluorobenzyl]-2-methoxyacetamide] | 5.11 | – | > 20 | –
COc1cc2nc(C)nc(NC(C)c3ccc(-c4cc(Cl)ccc4CNC(=O)OC(C)(C)C)s3)c2cc1OC (centres unmarked) [Example 387, tert-butyl [4-chloro-2-(5-{1-[(6,7-dimethoxy-2-methylquinazolin-4-yl)amino]ethyl}-thiophen-2-yl)benzyl]carbamate] | 8.32 | – | – | IC50 [2, 4]: > 20 µM
